In patent US12295396B2, “Antagonists of T2R54 and compositions and uses thereof” (Firmenich Incorporated, priority 2018, dated 2025):

Biological target: T1, hT2R54 (Homo sapiens, UniProt P59534)
T1 construct: expressed in transfected cells; it overexpresses a promiscuous G protein
T1 sequence (P59534 1-338): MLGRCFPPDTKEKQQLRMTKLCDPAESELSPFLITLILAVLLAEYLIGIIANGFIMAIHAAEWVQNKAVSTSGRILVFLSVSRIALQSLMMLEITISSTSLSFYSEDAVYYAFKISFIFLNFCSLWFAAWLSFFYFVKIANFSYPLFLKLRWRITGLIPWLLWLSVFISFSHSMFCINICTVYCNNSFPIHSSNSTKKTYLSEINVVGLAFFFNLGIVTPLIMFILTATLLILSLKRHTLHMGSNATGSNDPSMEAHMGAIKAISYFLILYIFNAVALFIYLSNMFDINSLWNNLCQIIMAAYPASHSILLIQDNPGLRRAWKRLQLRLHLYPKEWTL
Assay: Cell-based assay for measuring hT2R54 inhibition (FLIPR calcium, Fluo4AM, acetaminophen as bitter agonist)
Conditions: Table 2; cells stably expressing hT2R54 and a promiscuous G protein; read-out: hT2R54 IC50
Procedure: Cells stably expressing hT2R54 and a promiscuous G protein were seeded in 384 well plates 24 hours prior to the experiment. Cells were loaded with the calcium indicator Fluo4AM, washed and loaded in a FLIPR instrument with a compound plate containing increasing doses of acetaminophen in quadruplicates and prepared at 2× of final concentration. Baseline was recorded for 10 seconds, then 25 μl of […] was added onto 25 μl of cells and resulting changes in fluorescence were monitored over an additional 3 minutes. The host cell line overexpressing the G protein but not hT2R54 was treated as described above.
The ability of a test compound that blocks bitter taste elicited through hT2R54 was measured in this assay, as follows. Cells stably expressing hT2R54 and a promiscuous G protein were seeded in 384 well plates 24 hours prior to the experiment. Cells were loaded with the calcium indicator Fluo4AM, washed and loaded in a FLIPR instrument with a compound plate containing increasing doses of acetaminophen in buffer and increasing doses of acetaminophen with depicted fixed concentrations of Cmpd 109 (Table 4). Base line was recorded for 10 seconds, then 25 μl of compound and compound mixtures were added onto 25 μl of cells and resulting changes in fluorescence were monitored over an additional 3 minutes. The concentration of test compound that blocks half of the response when the bitter compound alone is present is presented as the EC50 or IC50 value.
In the examples above, the EC50 of compounds for blocking bitter taste elicited through T2R54 was measured in the same manner.

| Compound | IC50 |
| --- | --- |
| CC(=O)c1cc2c(cc1NC(=O)CN1CCN(C(=O)Cc3cccs3)CC1)OCO2 [compound 65] | 30 nM |
| CC(=O)c1cc2c(cc1NC(=O)CN1CCN(C(=O)c3cnn(C)c3)CC1)OCO2 [compound 66] | 17 nM |
| CC(=O)c1cc2c(cc1NC(=O)CN1CCN(C(=O)c3ccc(C)s3)CC1)OCO2 [compound 67] | 15 nM |
| CC(=O)c1cc2c(cc1NC(=O)CN1CCN(C(=O)c3sccc3C)CC1)OCO2 [compound 68] | 30 nM |
| CC(=O)c1cc2c(cc1NC(=O)CN1CCN(C(=O)c3c(C)noc3C)CC1)OCO2 [compound 69] | 40 nM |
| CC(=O)c1cc2c(cc1NC(=O)CN1CCN(C(=O)c3ccon3)CC1)OCO2 [compound 70] | 20 nM |
| CC(=O)c1cc2c(cc1NC(=O)CN1CCN(C(=O)c3ccn(C)n3)CC1)OCO2 [compound 71] | 50 nM |
| CC(=O)c1cc2c(cc1NC(=O)CN1CCN(C(=O)c3cnco3)CC1)OCO2 [compound 72] | 60 nM |
| CC(=O)c1cc2c(cc1NC(=O)CN1CCN(C(=O)c3cc(C)cs3)CC1)OCO2 [compound 73] | 80 nM |
| CC(=O)c1cc2c(cc1NC(=O)CN1CCN(C(=O)c3cn(C)nc3C)CC1)OCO2 [compound 74] | 200 nM |
| CC(=O)c1cc2c(cc1NC(=O)CN1CCN(C(=O)c3cnon3)CC1)OCO2 [compound 75] | 100 nM |
| CC(=O)c1cc2c(cc1NC(=O)CN1CCN(C(=O)c3nc(C)oc3C)CC1)OCO2 [compound 76] | 70 nM |
| CC(=O)c1cc2c(cc1NC(=O)CN1CCN(C(=O)c3ccn(C)c3)CC1)OCO2 [compound 77] | 30 nM |
| CC(=O)c1cc2c(cc1NC(=O)CN1CCN(C(=O)c3cn(C)nn3)CC1)OCO2 [compound 78] | 30 nM |
| CC(=O)c1cc2c(cc1NC(=O)CN1CCN(C(=O)c3ccoc3)CC1)OCO2 [compound 79] | 30 nM |
| CC(=O)c1cc2c(cc1NC(=O)CN1CCN(C(=O)c3cc4ccccc4o3)CC1)OCO2 [compound 80] | 500 nM |
| CC(=O)c1cc2c(cc1NC(=O)CN1CCN(C(=O)c3ccc(C)o3)CC1)OCO2 [compound 81] | 4 nM |
| CCCCC(=O)N1CCN(CC(=O)Nc2cc3c(cc2OC)OCO3)CC1 [compound 82] | 540 nM |

| Compound | IC50 |
| --- | --- |
| CCOC(=O)N1CCN(CC(=O)Nc2cc3c(cc2OC)OCO3)CC1 [compound 83] | 520 nM |
| CCCOC(=O)N1CCN(CC(=O)Nc2cc3c(cc2OC)OCO3)CC1 [compound 84] | 240 nM |
| COc1cc2c(cc1NC(=O)CN1CCN(C(=O)C3CCCO3)CC1)OCO2 (stereo not shown) [compound 85] | 1160 nM |
| COc1cc2c(cc1NC(=O)CN1CCN(C(=O)C3CCCCO3)CC1)OCO2 (stereo not shown) [compound 86] | 1140 nM |
| COc1cc2c(cc1NC(=O)CN1CCN(C(=O)CC3CCOCC3)CC1)OCO2 [compound 87] | 1040 nM |
| COc1cc2c(cc1NC(=O)CN1CCN(C(=O)c3ccco3)CC1)OCO2 [compound 88] | 130 nM |
| COc1cc2c(cc1NC(=O)CN1CCN(C(=O)c3ccc(C)o3)CC1)OCO2 [compound 89] | 80 nM |
| COc1cc2c(cc1NC(=O)CN1CCN(C(=O)c3ccccc3F)CC1)OCO2 [compound 90] | 200 nM |
| COc1cc2c(cc1NC(=O)CN1CCN(C(=O)c3ccccc3OC)CC1)OCO2 [compound 91] | 280 nM |
| COc1cc2c(cc1NC(=O)CN1CCN(C(=O)c3ccccc3O)CC1)OCO2 [compound 92] | 440 nM |
| COc1cc2c(cc1NC(=O)CN1CCN(C(=O)c3cccc(O)c3)CC1)OCO2 [compound 93] | 430 nM |
| COc1cc2c(cc1NC(=O)CN1CCN(C(=O)c3ccccn3)CC1)OCO2 [compound 94] | 1510 nM |
| COc1cc2c(cc1NC(=O)CN1CCN(C(=O)c3cccnc3)CC1)OCO2 [compound 95] | 1340 nM |
| COc1cc2c(cc1NC(=O)CN1CCN(C(=O)c3ccncc3)CC1)OCO2 [compound 96] | 1440 nM |
| COc1cc2c(cc1NC(=O)CN1CCN(C(=O)c3ccc(F)cc3)CC1)OCO2 [compound 97] | < 1000 nM |
| COc1cc2c(cc1NC(=O)CN1CCN(C(=O)c3ccn(C)n3)CC1)OCO2 [compound 98] | 1080 nM |
| COc1ccccc1CC(=O)N1CCN(CC(=O)Nc2cc3c(cc2OC)OCO3)CC1 [compound 99] | 600 nM |
| COc1cc2c(cc1NC(=O)CN1CCN(C(=O)Cc3ccccc3O)CC1)OCO2 [compound 100] | 430 nM |

Same assay, conditions: Table 3; cells stably expressing hT2R54 and a promiscuous G protein; read-out: hT2R54 IC50

| Compound | IC50 |
| --- | --- |
| CC(=O)c1cc2c(cc1NC(=O)CN1CCN(Cc3ccccc3)CC1)OCO2 [compound 101, N-(6-acetylbenzo[d][1,3]dioxol-5-yl)-2-(4-benzylpiperazin-1-yl)acetamide] | 1060 nM |
| CC(=O)c1cc2c(cc1NC(=O)CN1CCN(Cc3ccccc3F)CC1)OCO2 [compound 102] | 500 nM |
| CC(=O)c1cc2c(cc1NC(=O)CN1CCN(Cc3cccc(F)c3)CC1)OCO2 [compound 103] | 500 nM |
| CC(=O)c1cc2c(cc1NC(=O)CN1CCN(Cc3ccc(F)cc3)CC1)OCO2 [compound 104] | 600 nM |
| COc1ccc(F)cc1CN1CCN(CC(=O)Nc2cc3c(cc2C(C)=O)OCO3)CC1 [compound 105] | 90 nM |
| CC(=O)c1cc2c(cc1NC(=O)CN1CCN(Cc3ccccn3)CC1)OCO2 [compound 106] | 300 nM |
| CC(=O)c1cc2c(cc1NC(=O)CN1CCN(Cc3nc4ccccc4s3)CC1)OCO2 [compound 107] | 4180 nM |
| CC(=O)c1cc2c(cc1NC(=O)CN1CCN(C(C(N)=O)c3ccccc3)CC1)OCO2 (stereo not shown) [compound 108] | 1760 nM |

Same assay, conditions: Table 4; cells stably expressing hT2R54 and a promiscuous G protein; read-out: hT2R54 IC50

| Compound | IC50 |
| --- | --- |
| CC(=O)c1cc2c(cc1NC(=O)CN1CCOCC1)OCO2 [compound 109, N-(6-acetylbenzo[d][1,3]dioxol-5-yl)-2-morpholinoacetamide] | 588 nM |
| CC(=O)c1cc2c(cc1NC(=O)C(C)N1CCOCC1)OCO2 (stereo not shown) [compound 110, N-(6-Acetylbenzo[d][1,3]dioxol-5-yl)-2-morpholinopropanamide] | 359 nM |
| CC(=O)c1cc2c(cc1NC(=O)C(C)(C)N1CCOCC1)OCO2 [compound 111, N-(6-Acetylbenzo[d][1,3]dioxol-5-yl)-2-methyl-2-morpholinopropanamide] | 207 nM |
| CCOC(=O)[C@@H]1CCCN1CC(=O)Nc1cc2c(cc1C(C)=O)OCO2 [compound 112, Ethyl (2-((6-acetylbenzo[d][1,3]dioxol-5-yl)amino)-2-oxoethyl)-L-prolinate] | 206 nM |
| CCOC(=O)C1CCCCN1CC(=O)Nc1cc2c(cc1C(C)=O)OCO2 (stereo not shown) [compound 113, Ethyl 1-(2-((6-Acetylbenzo[d][1,3]dioxol-5-yl)amino)-2-oxoethyl)piperidine-2-carboxylate] | 78 nM |
| CCOC(=O)C1CCN(CC(=O)Nc2cc3c(cc2C(C)=O)OCO3)C1 (stereo not shown) [compound 114, Ethyl 1-(2-((6-acetylbenzo[d][1,3]dioxol-5-yl)amino)-2-oxoethyl)pyrrolidine-3-carboxylate] | 61 nM |
| CCOC(=O)C1CCCN(CC(=O)Nc2cc3c(cc2C(C)=O)OCO3)C1 (stereo not shown) [compound 115, Ethyl 1-(2-((6-Acetylbenzo[d][1,3]dioxol-5-yl)amino)-2-oxoethyl)piperidine-3-carboxylate] | 9 nM |
| CCOC(=O)C1CCN(CC(=O)Nc2cc3c(cc2C(C)=O)OCO3)CC1 [compound 116, Ethyl 1-(2-((6-acetylbenzo[d][1,3]dioxol-5-yl)amino)-2-oxoethyl)piperidine-4-carboxylate] | 103 nM |
| CCOC(=O)C1CCCN(CC(=O)Nc2cc3c(cc2OC)OCO3)C1 (stereo not shown) [compound 117, Ethyl 1-(2-((6-Methoxybenzo[d][1,3]dioxol-5-yl)amino)-2-oxoethyl)piperidine-3-carboxylate] | 188 nM |
| CCOC(=O)C1CCCN(CC(=O)Nc2cc3c(cc2C(C)=O)OCCO3)C1 (stereo not shown) [compound 118, Ethyl 1-(2-((7-Acetyl-2,3-dihydrobenzo[b][1,4]dioxin-6-yl)amino)-2-oxoethyl)piperidine-3-carboxylate] | 24 nM |
| CC(=O)c1cc2c(cc1NC(=O)CN1CC(C)OC(C)C1)OCO2 (stereo not shown) [compound 119] | 246 nM |
| CC(=O)c1cc2c(cc1NC(=O)CN1CCC(O)CC1)OCO2 [compound 120] | < 10 nM |
| COC1CCN(CC(=O)Nc2cc3c(cc2C(C)=O)OCO3)CC1 [compound 121] | 65 nM |
| CC(=O)c1cc2c(cc1NC(=O)CN1CCCC(O)C1)OCO2 (stereo not shown) [compound 122] | < 20 nM |
| COC1CCCN(CC(=O)Nc2cc3c(cc2C(C)=O)OCO3)C1 (stereo not shown) [compound 123] | 2 nM |
| COC1CCN(C(C)(C)C(=O)Nc2cc3c(cc2C(C)=O)OCO3)CC1 [compound 124] | 2140 nM |
| COC(=O)C1CCN(CC(=O)Nc2cc3c(cc2C(C)=O)OCO3)CC1 [compound 125] | 100 nM |
